# According to PMC5267425, “Identification of small molecule modulators of HIV-1 Tat and Rev protein accumulation” (Retrovirology, 2017):
# Several values for one entry are separate records, joined by “and”; a condition that tells them apart may be missing. Equal values may be shown once.
# Test system: alternative splicing of host transcripts in HeLa rtTA HIV∆Mls cells
# Assay: RT-PCR of host alternative splicing events (PSI), capillary electrophoresis
# Assay type: cell-based
# Parameters: PSI ZNF827_1 / PSI RAN_1 / PSI SEC24B_1 / PSI SMN2_1 / PSI TRIM37_1 / PSI RPS24_1 / PSI PDCL_1 / PSI SMN2_2 / PSI SETD5_1 / PSI RAI14_1 / PSI TPM1_1 / PSI SPAG9_1 / PSI POLDIP3_1 / PSI SRPK2_1 / PSI POMT1_1: concentration or dose not given beside the values
# Method: To assess the effect of compounds on expression/alternative splicing of cellular RNA, two approaches were used. For both, total RNA was prepared from DMSO or compound-treated cells. In the first assay, samples were assayed by medium throughput RT-PCR to determine the inclusion levels of alternatively spliced exons and splice sites located in 73 selected events. 73 primer sets containing a fluorescently (5-FAM) labeled primer for each, were used in RT-PCR. PCR products generated were denatured in formamide and quantified using ABI Prism capillary sequencer (Life Technologies). The fragment analysis was performed on the PeakScanner software (Life Technologies) in batch mode and automated using custom scripts written in Python. The inclusion level of each exon was calculated as the amount of transcripts carrying the alternative exon relative to the total amount of all transcripts detected in the PCR reaction and results are summarized for compound-treatment in comparison to DMSO treatment. In the second assay, extracted RNA was processed using the Illumina TruSeq RNA Sample Preparation Kit (Illumina) according to the manufacturer’s instructions. The cDNA library generated was validated (passed quality control on a Bioanalyzer 1000 DNA chip (Agilent)), normalized and pooled for cluster generation. cDNA libraries were sequenced on the Illumina HiSeq 2500 (paired-end, 125 bp) with version 4 chemistry following manufacturer’s protocols. The full human genome and transcriptomic sequences were downloaded from the UCSC Genome Browser (genome.ucsc.edu) database and Ensembl (www.ensembl.org), respectively, as described by Irimia et al.. Exon annotations and genomic coordinates for alternative splicing (AS) analysis were derived from tables downloaded from the UCSC Genome Browser database. To determine gene expression (GE) or alternative splicing (AS) changes in an unbiased way, the effective number of unique mappable positions in each transcript (i.e. the effective length) was determined by aligning sequences with unique transcriptomic alignment to the human genome using Bowtie. Reads with one unique genomic alignment were then aligned against the canonical transcriptome and, for each transcript, the number of reads with one unique transcriptomic alignment were counted. The expression level of genes was quantified as corrected ‘reads per kilobase of exon model per million mapped reads’ (cRPKM), a widely used metric to estimate gene expression levels. The expression cutoff was 0.5 cRPKM, corresponding to the transcript of the gene being present if there were ≥10 reads that mapped uniquely to a single genomic locus. Approximately 19,847 Ensembl annotated protein-coding genes were compared to create a gene list of differentially expressed genes. Genes were considered differentially expressed if fold changes in cRPKM was ≥2 in compound-treated versus DMSO-treated samples.
smiles,measurement,setting,value
"COc1ccc(C=NNC(=O)c2ccccc2O)cc1O [Compound 892, 2-hydroxy-N′-(3-hydroxy-4-methoxybenzylidene)benzohydrazide]",DPSI EIF4A2_1,"chr7:187988792-187988899, mean PSI 5193892 minus DMSO, n=3, P Value 0.014",13.67%
same,PSI EIF4A2_1,"chr7:187988899-187988904, HeLa rtTA-HIV-DMls cells, replicates 25, 26, 27",22.00 and 26.00 and 31.00
same,DPSI EIF4A2_1,"chr7:187988899-187988904, mean PSI 5193892 minus DMSO, n=3, P Value 0.035",8.33%
same,PSI PDCL_1,"chr9:124628716-124628892, HeLa rtTA-HIV-DMls cells, replicates 25, 26, 27",90.00 and 91.00 and 93.00
same,DPSI PDCL_1,"chr9:124628716-124628892, mean PSI 5193892 minus DMSO, n=3, P Value 0.152",1.67%
same,PSI GM130_1,"chr9:130069293-130069374, HeLa rtTA-HIV-DMls cells, replicates 25, 26, 27",23.00 and 18.00 and 15.00
same,DPSI GM130_1,"chr9:130069293-130069374, mean PSI 5193892 minus DMSO, n=3, P Value 0.007",-14.33%
same,PSI POMT1_1,"chr9:133368281-133368521, HeLa rtTA-HIV-DMls cells, replicates 25, 26, 27",50.00 and 37.00 and 28.00
same,DPSI POMT1_1,"chr9:133368281-133368521, mean PSI 5193892 minus DMSO, n=3, P Value 0.626",-4.00%
same,PSI POMT1_1,"chr9:133371321-133371428, HeLa rtTA-HIV-DMls cells, replicates 25, 26, 27",95.00 and 94.00 and 63.00
same,DPSI POMT1_1,"chr9:133371321-133371428, mean PSI 5193892 minus DMSO, n=3, P Value 0.627",-5.67%
same,PSI RPS24_1,"chr10:79467729-79467746, HeLa rtTA-HIV-DMls cells, replicates 25, 26, 27",8.00 and 13.00 and 12.00
same,DPSI RPS24_1,"chr10:79467729-79467746, mean PSI 5193892 minus DMSO, n=3, P Value 0.079",3.67%
same,PSI ADD3_1,"chr10:111882053-111882148, HeLa rtTA-HIV-DMls cells, replicates 25, 26, 27",42.00 and 60.00 and 62.00
same,DPSI ADD3_1,"chr10:111882053-111882148, mean PSI 5193892 minus DMSO, n=3, P Value 0.701",3.33%
same,PSI CTNND1_1,"chr11:57318058-57318129, HeLa rtTA-HIV-DMls cells, replicates 25, 26, 27",82.00 and 76.00 and 100.00
same,PSI APLP2_1,"chr11:129498717-129498884, HeLa rtTA-HIV-DMls cells, replicates 25, 26, 27",15.00 and 18.00 and 19.00
same,DPSI APLP2_1,"chr11:129498717-129498884, mean PSI 5193892 minus DMSO, n=3, P Value 0.009",-6.00%
same,PSI ERC1_1,"chr12:1091641-1091725, HeLa rtTA-HIV-DMls cells, replicates 25, 26, 27",36.00 and 55.00 and 52.00
same,PSI FGFR1OP2_1,"chr12:27004715-27004828, HeLa rtTA-HIV-DMls cells, replicates 25, 26, 27",22.00 and 15.00 (2×)
same,DPSI FGFR1OP2_1,"chr12:27004715-27004828, mean PSI 5193892 minus DMSO, n=3, P Value 0.030",-11.67%
same,PSI DNM1L_1,"chr12:32782066-32782143, HeLa rtTA-HIV-DMls cells, replicates 25, 26, 27",24.00 and 37.00 and 39.00
same,PSI DNM1L_1,"chr12:32782465-32782497, HeLa rtTA-HIV-DMls cells, replicates 25, 26, 27",38.00 and 52.00 and 53.00
same,DPSI DNM1L_1,"chr12:32782465-32782497, mean PSI 5193892 minus DMSO, n=3, P Value 0.447",-5.67%
same,PSI NAP1L1_1,"chr12:74747418-74747520, HeLa rtTA-HIV-DMls cells, replicates 25, 26, 27",76.00 and 78.00 and 83.00
same,DPSI NAP1L1_1,"chr12:74747418-74747520, mean PSI 5193892 minus DMSO, n=3, P Value 0.123",-5.67%
same,PSI NAP1L1_1,"chr12:74748956-74749041, HeLa rtTA-HIV-DMls cells, replicates 25, 26, 27",76.00 and 75.00 and 79.00
same,DPSI NAP1L1_1,"chr12:74748956-74749041, mean PSI 5193892 minus DMSO, n=3, P Value 0.018",-7.00%
same,PSI MVK_1,"chr12:108501990-108502134, HeLa rtTA-HIV-DMls cells, replicates 25, 26, 27",78.00 and 100.00 (2×)
same,DPSI MVK_1,"chr12:108501990-108502134, mean PSI 5193892 minus DMSO, n=3, P Value 0.179",16.00%
same,PSI MVK_1,"chr12:108503583-108503738, HeLa rtTA-HIV-DMls cells, replicates 25, 26, 27",64.00 and 74.00 and 45.00
same,DPSI MVK_1,"chr12:108503583-108503738, mean PSI 5193892 minus DMSO, n=3, P Value 0.477",8.33%
same,PSI RAN_1,"chr12:129923082-129923127, HeLa rtTA-HIV-DMls cells, replicates 25, 26, 27",93.00 (2×) and 94.00
same,DPSI RAN_1,"chr12:129923082-129923127, mean PSI 5193892 minus DMSO, n=3, P Value 0.018",-4.67%
same,PSI MBNL2_1,"chr13:96807051-96807104, HeLa rtTA-HIV-DMls cells, replicates 25, 26, 27",11.00 and 30.00 and 29.00
same,DPSI MBNL2_1,"chr13:96807051-96807104, mean PSI 5193892 minus DMSO, n=3, P Value 0.187",10.33%
